From patent US5349127A, “Expression of herbicide metabolizing cytochromes P450” (priority 1992, dated 1994)

Legend:
[1] = system: S. griseus PH4001; assay: Metabolism of 10001 by untransformed strain (Example 14); format: in vitro ADME, Streptomyces griseus; conditions: substrate 10001 120 ug/ml
[2] = system: S. griseus PH3832; assay: Metabolism of 10001 by strains transformed with pPAT108 (Example 14); format: in vitro ADME, Streptomyces griseus; conditions: substrate 10001 120 ug/ml
Procedure: (§1) S. griseolus PH2003, S. griseus PH4001, S. ambofaciens PH4002, and S. lividans JI1326 were transformed with the plasmid pPAT108. The transformed S. griseolus strain, PH3826, was cultured for 24 hours in 150 mls of sporulation broth with 5 ug/ml thiostrepton. The transformed S. griseus strain, PH3832, and the transformed S. ambofaciens strain, PH3834, were cultured for 24 hours in 150 mls of trypticase soy broth with 5 ug/ml thiostrepton. The transformed S. lividans strain, PH3822, was similarly cultured in 150 mls of YEME broth with 5 ug/ml thiostrepton. Three hours before harvesting the cells, 50 mls of fresh medium of the same type with 5 ug/ml thiostrepton was added to each culture. The cells from each of the cultures were harvested by centrifugation, washed twice with 50 mMMOPS, pH7.2 and resuspended in five cell volumes of MOPS containing 0.2% glucose and 120 ug/ml of the sulfonylurea 10001. The cell suspensions were incubated at 30° C. with shaking and aliquots were removed at 0.5, 1, 2 and 4 hours. The supernatant of each aliquot was analyzed by HPLC and the concentration of the sulfonylurea compound 10001 and its metabolites 10002 and 10003 were determined.

[3] = system: Tomato seedlings (Lycopersicon esculentum cv. Pixie); assay: Tomato transplants in herbicide-treated soil after bacterial pretreatments (Example 18); format: in vivo; conditions: for Shoot Fresh Weight (mean of five plants): 22 days; for Shoot fresh weight in treatment C versus the other treatments: 32, 64 and 125 g ai/ha of 10001 or 16 and 32 g ai/ha of 10010
Procedure: One liter cultures of S. griseolus ATCC 11796, S. lividans pCAO200, S. lividans pCAO200-#9-SU1-FeS-B or S. lividans pCAO200-#12-SU1 were grown in YEME medium (sporulation broth for the S. griseolus culture) at 30° C. until the cultures were in late log phase of growth and the absorbance of each culture in a spectrophotometer at a wavelength of 600 nm was between 1.0 and 1.3. Tomato seedlings (Lycopersicon esculentum cv. "Pixie") were seeded directly into soiless media, Oasis Wedges® (Smithers-Oasis, Kent, Ohio), fertilized with 500 ppm Peter's® fertilizer (20:19:18); and 300 ppm of iron was added weekly. As the tomato plants develop, roots ramify through the Oasis Wedges®. The tomato plants were transplanted to pots when they were 4 inches tall as follows.
Five inch standard round pots (without holes) were filled with Sassafras sandy loam (ph 6.7, 0.8% OM) and a single Oasis cube and then treated preemergence with either Classic® (10001) 25 DF (16, 32, 64, 125 and 250 grams active ingredient/hectare [g ai/ha]) or Oust® (10010) 75 DF at rates of 4, 8, 16, 32 and 64 g ai/ha), both herbicides available from E. I. du Pont de Nemours and Company, Wilmington, Del. The oasis cube was then removed and replaced by a transplant tomato dipped in either the cultures described above of S. griseolus ATCC 11796 (treatment A), S. lividans pCAO200 (treatment B), S. lividans pCAO200-#9-SU1-FeS-B (treatment C), S. lividans pCAO200-#12-SU1 (treatment D) or into water (treatment E). Five transplants were tested for each treatment at each dosage rate. The pots were placed on a greenhouse bench for 22 days and watered twice daily, after which shoot fresh weights of treatments were determined. Roots of these treatments and controls were examined too. Plants, soil and pots treated with bacterial cultures were double bagged and disposed by incineration.

[4] = system: S. ambofaciens PH4002; assay: Metabolism of 10001 by untransformed strain (Example 14); format: in vitro ADME, Streptomyces ambofaciens; conditions: substrate 10001 120 ug/ml
[5] = system: S. griseolus PH3809; assay: Metabolism of 10001 by strains transformed with pCS325 (Example 15); format: in vitro ADME, Streptomyces griseolus; conditions: substrate 10001
Procedure: as §1
S. griseolus PH2003, S. griseus PH4001, S. ambofaciens PH4002, and S. lividans JI1326 were transformed with the plasmid pCS325. Cells of the transformed strains of S. griseolus PH3809, S. griseus PH3817, S. ambofaciens PH3818, and S. lividans PH3816, were grown and treated as described in Example 14, and the concentrations of the sulfonylurea compound 10001 and its metabolites 10002 and 10003 were determined.

[6] = 16 g ai/ha, Pretreatment A (Streptomyces griseolus ATCC11796)
[7] = 16 g ai/ha, Pretreatment B (Streptomyces lividans pCAO200)
[8] = 16 g ai/ha, Pretreatment C (S. lividans pCAO200#9SU1-FeS-B)
[9] = 16 g ai/ha, Pretreatment D (S. lividans pCAO200#12SU1)
[10] = 16 g ai/ha, Pretreatment E (water)
[11] = 32 g ai/ha, Pretreatment A (Streptomyces griseolus ATCC11796)
[12] = 32 g ai/ha, Pretreatment B (Streptomyces lividans pCAO200)
[13] = 32 g ai/ha, Pretreatment C (S. lividans pCAO200#9SU1-FeS-B)
[14] = 32 g ai/ha, Pretreatment D (S. lividans pCAO200#12SU1)
[15] = 32 g ai/ha, Pretreatment E (water)
[16] = 64 g ai/ha, Pretreatment A (Streptomyces griseolus ATCC11796)
[17] = 64 g ai/ha, Pretreatment B (Streptomyces lividans pCAO200)
[18] = 64 g ai/ha, Pretreatment C (S. lividans pCAO200#9SU1-FeS-B)
[19] = 64 g ai/ha, Pretreatment D (S. lividans pCAO200#12SU1)
[20] = 64 g ai/ha, Pretreatment E (water)

| Compound | concentration in supernatant ([1]; 1.0 h) [µM] | concentration in supernatant ([1]; 4.0 h) [µM] | concentration in supernatant ([2]; 0.5 h) [µM] | concentration in supernatant ([2]; 1.0 h) [µM] | concentration in supernatant ([2]; 2.0 h) [µM] | concentration in supernatant ([2]; 4.0 h) [µM] | Shoot Fresh Weight (mean of five plants) [3, 6] [grams] | Shoot Fresh Weight (mean of five plants) [3, 7] [grams] | Shoot Fresh Weight (mean of five plants) [3, 8] [grams] | Shoot Fresh Weight (mean of five plants) [3, 9] [grams] | Shoot Fresh Weight (mean of five plants) [3, 10] [grams] | Shoot fresh weight in treatment C versus the other treatments [3] | Shoot Fresh Weight (mean of five plants) [3, 11] [grams] | Shoot Fresh Weight (mean of five plants) [3, 12] [grams] | Shoot Fresh Weight (mean of five plants) [3, 13] [grams] | Shoot Fresh Weight (mean of five plants) [3, 14] [grams] | Shoot Fresh Weight (mean of five plants) [3, 15] [grams] | Shoot Fresh Weight (mean of five plants) [3, 16] [grams] | Shoot Fresh Weight (mean of five plants) [3, 17] [grams] | Shoot Fresh Weight (mean of five plants) [3, 18] [grams] | further results |
| --- | --- | --- | --- | --- | --- | --- | --- | --- | --- | --- | --- | --- | --- | --- | --- | --- | --- | --- | --- | --- | --- |
| CCOC(=O)c1ccccc1S(=O)(=O)NC(=O)Nc1nc(Cl)cc(OC)n1 [compound 10001, N-[(4-chloro-6-methoxy-pyrimidin-2-yl)aminocarbonyl]-2-ethoxycarbonylbenzenesulfonamide] | 370 | 377 | 281 | 238 | 177 | 77 | 0.88 | 0.67 | 1.63 | 0.62 | 1.67 | 2-3 times greater | 0.74 | 0.47 | 1.62 | 0.82 | 1.07 | 0.21 | 0.53 | 1.24 | Shoot Fresh Weight (mean of five plants) [3, 19]: 0.47 grams; Shoot Fresh Weight (mean of five plants) [3, 20]: 0.46 grams; Shoot Fresh Weight (mean of five plants) ([3]; 125 g ai/ha, Pretreatment A (Streptomyces griseolus ATCC11796)): 0.49 grams; Shoot Fresh Weight (mean of five plants) ([3]; 125 g ai/ha, Pretreatment B (Streptomyces lividans pCAO200)): 0.38 grams; Shoot Fresh Weight (mean of five plants) ([3]; 125 g ai/ha, Pretreatment C (S. lividans pCAO200#9SU1-FeS-B)): 1.01 grams; Shoot Fresh Weight (mean of five plants) ([3]; 125 g ai/ha, Pretreatment D (S. lividans pCAO200#12SU1)): 0.35 grams; Shoot Fresh Weight (mean of five plants) ([3]; 125 g ai/ha, Pretreatment E (water)): 0.23 grams; Shoot Fresh Weight (mean of five plants) ([3]; 250 g ai/ha, Pretreatment A (Streptomyces griseolus ATCC11796)): 0.44 grams; Shoot Fresh Weight (mean of five plants) ([3]; 250 g ai/ha, Pretreatment B (Streptomyces lividans pCAO200)): 0.25 grams; Shoot Fresh Weight (mean of five plants) ([3]; 250 g ai/ha, Pretreatment C (S. lividans pCAO200#9SU1-FeS-B)): 0.55 grams; Shoot Fresh Weight (mean of five plants) ([3]; 250 g ai/ha, Pretreatment D (S. lividans pCAO200#12SU1)): 0.26 grams; Shoot Fresh Weight (mean of five plants) ([3]; 250 g ai/ha, Pretreatment E (water)): 0.21 grams; concentration in supernatant ([4]; 1.0 h): 406 µM; concentration in supernatant ([4]; 4.0 h): 412 µM; concentration in supernatant ([5]; 0.5 h): 175 µM; concentration in supernatant ([5]; 1.0 h): 108 µM; concentration in supernatant ([5]; 2.0 h): 0 µM; concentration in supernatant ([5]; 4.0 h): 0 µM |
| COc1cc(Cl)nc(NC(=O)NS(=O)(=O)c2ccccc2C(=O)O)n1 [compound 10003, N-[(4-chloro-6-methoxy-pyrimidin-2-yol)aminocarbonyl]-2-carboxybenzenesulfonamide] | 1 | 4 | 9 | 26 | 46 | 80 |  |  |  |  |  |  |  |  |  |  |  |  |  |  | concentration in supernatant ([4]; 1.0 h): 0 µM; concentration in supernatant ([4]; 4.0 h): 0 µM; concentration in supernatant ([5]; 0.5 h): 6 µM; concentration in supernatant ([5]; 1.0 h): 16 µM; concentration in supernatant ([5]; 2.0 h): 24 µM; concentration in supernatant ([5]; 4.0 h): 25 µM |
| COC(=O)c1ccccc1S(=O)(=O)NC(=O)Nc1nc(C)cc(C)n1 [compound 10010, N-[(4,6-dimethylpyrimidin-2-yl)aminocarbonyl]-2-methoxycarbonylbenzenesulfonamide] |  |  |  |  |  |  | 0.32 | 0.65 | 0.98 | 0.56 | 0.39 | 2-3 times greater | 0.33 | 0.42 | 1.01 | 0.62 | 0.28 | 0.30 | 0.39 | 0.46 | Shoot Fresh Weight (mean of five plants) ([3]; 4 g ai/ha, Pretreatment A (Streptomyces griseolus ATCC11796)): 1.16 grams; Shoot Fresh Weight (mean of five plants) ([3]; 4 g ai/ha, Pretreatment B (Streptomyces lividans pCAO200)): 0.73 grams; Shoot Fresh Weight (mean of five plants) ([3]; 4 g ai/ha, Pretreatment C (S. lividans pCAO200#9SU1-FeS-B)): 0.88 grams; Shoot Fresh Weight (mean of five plants) ([3]; 4 g ai/ha, Pretreatment D (S. lividans pCAO200#12SU1)): 0.88 grams; Shoot Fresh Weight (mean of five plants) ([3]; 4 g ai/ha, Pretreatment E (water)): 2.00 grams; Shoot Fresh Weight (mean of five plants) ([3]; 8 g ai/ha, Pretreatment A (Streptomyces griseolus ATCC11796)): 0.58 grams; Shoot Fresh Weight (mean of five plants) ([3]; 8 g ai/ha, Pretreatment B (Streptomyces lividans pCAO200)): 0.69 grams; Shoot Fresh Weight (mean of five plants) ([3]; 8 g ai/ha, Pretreatment C (S. lividans pCAO200#9SU1-FeS-B)): 1.02 grams; Shoot Fresh Weight (mean of five plants) ([3]; 8 g ai/ha, Pretreatment D (S. lividans pCAO200#12SU1)): 0.75 grams; Shoot Fresh Weight (mean of five plants) ([3]; 8 g ai/ha, Pretreatment E (water)): 0.65 grams; Shoot Fresh Weight (mean of five plants) [3, 19]: 0.29 grams; Shoot Fresh Weight (mean of five plants) [3, 20]: 0.34 grams |
